The text below walks through data of PMC12040169 (PLOS Biology, 2025).

This data set in a line: in vitro. As to conditions: human, hela cells, % viability.

The term viability denotes a read-out of living cells in per cent, often relative to untreated cells. Turning to `O=c1c2cc(Br)cc(F)c2ncn1CCC1CCCO1` (stereo not shown) [CBK306451], the viability at 28.5 h, 10 µM was 95.9%.
The same measure, in the same setting: as for `Nc1ncc(-c2cccc(F)c2)nc1NCC1CCOCC1` [CBK063860], the figure is 98.7%; as for `COc1ccc(CNC(=O)NC(=O)C2CCN(S(C)(=O)=O)CC2)c(OC)c1` [CBK034861], 89.4%.
Same read-out and setting: with `CC1CCc2c(sc3ncnc(OCC(=O)N(C)CCC#N)c23)C1` (stereo not shown) [CBK304976] the figure was 89.8%; with `CN(C)c1oc(-c2ccccc2)nc1S(=O)(=O)c1ccccc1` [CBK021477], 105%.
Same read-out and setting: as for `O=C(O)C1CCCCC1C(=O)Nc1cccc2ccccc12` (stereo not shown) [CBK261569], the figure is 101%; as for `CCn1ncc(CN(CCN(C)C)Cc2cccs2)c1C` [CBK282958], 107%; as for `CCOc1ccccc1-c1ccccc1NC(=O)c1nc2ccccc2n(C)c1=O` [CBK285855], 90.1%.
For the compound `Cn1cc(CC(=O)NCc2ccc(OC3CCNCC3)cc2)c2ccccc21` [CBK028430T], the viability at 28.5 h, 10 µM stood at 92.8%.
On the same count and under the same terms, with `Cc1ccc(C(=O)O/C(=C/c2nc3ccccc3n2Cc2cccc3ccccc23)c2ccc(C)cc2)cc1` [CBK262485] the figure was 108%; with `CC(C)Cc1nc(Cn2cnc3c(cnn3C)c2=O)no1` [CBK306256], 90.7%; with `CC(NC(=O)c1cnc(-c2cccc(C(F)(F)F)c2)c(-c2ccncc2)c1)c1ccc(F)cc1` (stereo not shown) [CBK037556], 99.7%.
`COc1ccc(-c2ccc3c(c2)COC2(CCNCC2)O3)c(OC)c1` [CBK061344]: the viability at 28.5 h, 10 µM (bulk resorufin, single well) was determined as 91.1%.
On to `Cc1cnc(CN2CCNC(=O)C2c2ccccc2C(F)(F)F)o1` (stereo not shown) [CBK306431], for which the viability at 28.5 h, 10 µM worked out at 85.4%.
Still for that read-out and setting: as for `Cc1c(Cl)c([N+](=O)[O-])nn1CCCC(=O)Nc1cc(Br)ccc1O` [CBK268875], the figure is 93.1%.
Same read-out and setting: with `CN(Cc1ccc2c(c1)OCO2)C(=O)c1cnn2c(-c3ccccc3)ccnc12` [CBK298276] the figure was 95%; with `CC(C)(C)c1cc(NC(=O)Cn2nc(C(=O)O)c3ccccc3c2=O)n(-c2ccccc2)n1` [CBK297557], 85.1%; with `COc1cnn(-c2ccccc2)c(=O)c1N(C)C` [CBK020317], 94%.
On the same count and under the same terms, as for `CC(C)[C@H](CO)Nc1nccnc1-c1ccncc1` [CBK089030], the figure is 91.9%; as for `C=CCn1c(Cc2csc(NC(=O)c3cccc(NC(C)=O)c3)n2)n[nH]c1=S` [CBK297891], 83.4%; as for `O=[N+]([O-])c1ccccc1NCCNS(=O)(=O)c1ccccc1` [CBK263552], 89%.
For `CC1=CC(C)C2C(=O)N(c3ccc(C(=O)O)cc3)C(=O)C2C1` (stereo not shown) [CBK286923], the viability at 28.5 h, 10 µM amounted to 87%.
Consider `Cc1ccc(-n2c(SCC(=O)c3ccc4c(c3)OCO4)nnc2-c2ccncc2)cc1` [CBK266132], for which the viability at 28.5 h, 10 µM worked out at 104%.
Same read-out and setting: as for `Cc1nc2cc(OCc3ccc(-c4nccnc4-c4nnn[nH]4)cc3)ccc2s1` [CBK050820], the figure is 108%; as for `CC(C)c1cccc2c1OC(C(C)C)C(=O)N2` (stereo not shown) [CBK009286], 85.2%; as for `COC(=O)CN1N=C(C(C)(C)C)Cn2c(cc3ccccc32)C1=O` [CBK284204], 95.5%.
Still for that read-out and setting: as for `COc1ccc([C@@]23CC[C@@H](NC(=O)Nc4ccc5ccccc5c4)C[C@@H]2N(C)CC3)cc1OC` [CBK034181T], the figure is 102%.
Same read-out and setting: with `Nc1nnc(SC/C=C/CSc2nnc(N)s2)s1` [CBK263092] the figure was 90.3%; with `Cc1ccc2c(c1)OC(C)(C)CC2NS(=O)(=O)N1CCN(C)CC1` (stereo not shown) [CBK307271], 103%.
Regarding `CCCCc1ccc(S(=O)(=O)n2ccc3c(N4CCNCC4)cccc32)cc1` [CBK003744C], the viability at 28.5 h, 10 µM was 78.7%.
Same read-out and setting: as for `CC(Oc1cccc2ccccc12)C(=O)N/N=C/c1ccc(Cl)cc1Cl` (stereo not shown) [CBK262218], the figure is 97%; as for `CC(=O)Nc1ccc(-c2ccc(C(=O)NCc3ccc(OC(F)(F)F)cc3)cn2)cc1` [CBK158830], 98.6%.
Still for that read-out and setting: as for `COCOc1ccc(-c2ncc(OCCN3CCOCC3)nc2N)cc1` [CBK145100], the figure is 87.7%.
Still for that read-out and setting: with `COCCN(Cc1cnn(C)c1)C(=O)c1cc(=O)c2cccc(F)c2[nH]1` [CBK306651] the figure was 83.8%.
Turning to `COc1ccc(NS(=O)(=O)c2cccc(Cl)c2C)c(C(=O)NCc2ccccc2)c1` [CBK113953], the viability at 28.5 h, 10 µM was determined as 85.3%.
On the same count and under the same terms, with `Cc1nn(C)c(C)c1CN(C(=O)C(C)Oc1ccccc1F)C1CC1` (stereo not shown) [CBK281480] the figure was 86.6%.
On the same count and under the same terms, as for `Cn1nccc1C(=O)Nc1nc(-c2ccccc2)cs1` [CBK287833], the figure is 83.8%.
Take `CCC(=O)N(Cc1cc2cc(C)ccc2nc1O)c1ccc(C)c(C)c1` [CBK265381]: the viability at 28.5 h, 10 µM was 107%.
On the same count and under the same terms, as for `COc1cc(C2CC(=O)Nc3nc(N)[nH]c(=O)c32)ccc1OCc1ccc(F)cc1` (stereo not shown) [CBK293980], the figure is 84.8%; as for `OCCn1c(S)nnc1-c1ccccc1` [CBK100025], 85.4%; as for `FC(F)(F)c1cccc(-c2cnn(-c3ccc4c(c3)OCO4)n2)c1` [CBK112664], 89.6%.
For the compound `CCN1CCN(Cc2c(C3CCCC3)[nH]c3ncccc23)CC1` [CBK285386], the viability at 28.5 h, 10 µM is 97%.
On the same count and under the same terms, as for `COC(=O)[C@H]1CCc2ccccc2N1C(C)=O` [CBK284256], the figure is 90.2%; as for `O=C(CCn1c(=O)oc2ccccc21)N1CC=C(c2ccc(F)cc2)CC1` [CBK295602], 95.8%; as for `CC(C)c1ccc(NS(=O)(=O)c2csc3ccnc(N4CCNCC4)c23)cc1` [CBK042343C], 95.8%.
Same read-out and setting: as for `COc1ccc(C(=O)C2=C(O)C(=O)N(CCN(C)C)C2c2cccc([N+](=O)[O-])c2)cc1Cl` (stereo not shown) [CBK266474], the figure is 102%; as for `CCOC(=O)c1c(CN2CCCC2)nc2c3ccccc3ccn12` [CBK267521C], 107%; as for `O=C(O)C[C@@H]1CCN(C(=O)Nc2ccccc2)C[C@@H]1CCN1CCCCC1` [CBK288782], 110%.
The same measure, in the same setting: with `COc1cc(CNC2CCCc3c2cnn3C)c(O)c(C(C)(C)C)c1` (stereo not shown) [CBK304716] the figure was 84.4%; with `COc1nc2ccccc2nc1CCC(=O)O` [CBK269356], 89.1%; with `Cn1nc(NC(=O)COCC(=O)O)c2ccccc21` [CBK057114], 98.8%.
Take `Cc1cc(Cl)c(S(=O)(=O)N2CC(C)OC(C)C2)cc1OCC(N)=O` (stereo not shown) [CBK266452]: the viability at 28.5 h, 10 µM stood at 109%.
On the same count and under the same terms, with `COc1ccc(C(C)C)cc1-c1cc(NCCc2cccnc2)n2nccc2n1` [CBK037097] the figure was 104%.
As for `Cc1cc(C)n(-c2cc(N3CCN(S(=O)(=O)Cc4ccccc4)CC3)ccc2[N+](=O)[O-])n1` [CBK264407], the viability at 28.5 h, 10 µM is 115%.
Take `O=C(O)C1(Oc2ccc3ncccc3c2)CCN(CC2CCOC2)CC1` (stereo not shown) [CBK307336]: the viability at 28.5 h, 10 µM turned out to be 93.2%.
The same measure, in the same setting: with `COc1ccc([C@]23CN(C)C[C@H]2CCN(C(=O)Nc2cccc(Br)c2)C3)cc1OC` [CBK075106T] the figure was 105%.
The same measure, in the same setting: with `CC(C)[C@H](CO)Nc1nccnc1-c1cccc(O)c1` [CBK037542] the figure was 96.1%; with `Cc1nc(C)c(CCC(=O)Nc2ccc(N3CCOCC3)cc2)c(=O)[nH]1` [CBK306059], 88.4%; with `Sc1nnc(COc2ccccc2)n1/N=C/c1cccnc1` [CBK265308], 103%.
Same read-out and setting: with `CCC1c2cccn2CCN1C(=O)c1cc(-c2ccccn2)n[nH]1` (stereo not shown) [CBK283224] the figure was 102%; with `O=C(CSc1ccccn1)Nc1ccc(CN2CCOCC2)cc1` [CBK306072], 91%.
Consider `COc1ccc(CN2CCN(C(=O)c3cccc(F)c3)CC2)c(OC)c1OC` [CBK074523], for which the viability at 28.5 h, 10 µM was determined as 95.5%.
Same read-out and setting: with `Cc1noc(C)c1CN1CCN(CC(CC(=O)Nc2ccccc2)C(=O)O)CC1` (stereo not shown) [CBK286858] the figure was 83.2%; with `CC(C)(C)c1ccc(-c2nc3ncccc3cc2N)cc1` [CBK067611], 94.4%; with `COC(=O)COc1ccc(S(=O)(=O)NCc2ccc3c(c2)OCO3)cc1C` [CBK267172], 90.3%.
Still for that read-out and setting: as for `Cc1cc2c(cc1C)C(=O)CC1(CCN(C(=O)c3ccco3)CC1)O2` [CBK282819], the figure is 96%; as for `COc1ccc(NC(=O)CC(CN(C)Cc2ccccc2)C(=O)O)cc1` (stereo not shown) [CBK286854], 93.5%; as for `CN(C)c1ccc(NC(=O)CC2Nc3ccccc3NC2=O)cc1` (stereo not shown) [CBK262765], 87.1%.
Consider `Fc1cccc(SCc2ccccc2)c1` [CBK002912], for which the viability at 28.5 h, 10 µM was found to be 117%.
The same measure, in the same setting: as for `CC(Sc1nc(-c2cccnc2)ccc1C#N)C(=O)O` (stereo not shown) [CBK267452], the figure is 90.7%; as for `CCCc1n[nH]c(=S)n1CC(=O)Nc1cc(NC(=O)C2CC2)ccc1C` [CBK297740], 106%; as for `Cc1nc(C2CCN(C(=O)c3cccnc3)CC2)c2sccn12` [CBK282233], 106%.
On the same count and under the same terms, with `CCCn1c(=S)[nH]c2cc(C(=O)NCCc3ccc(Cl)cc3)ccc2c1=O` [CBK294445] the figure was 88.6%.
On the same count and under the same terms, as for `CCN(C(=O)CCc1nc2ccccc2n1C)C1CCN(C)CC1` [CBK281994], the figure is 89.9%; as for `C[C@@H]1CN(Cc2ccco2)CCN1C(=O)c1nccc2ccccc12` [CBK285489], 99.8%; as for `CC(C)(C)c1nnc(NCc2ccccc2)s1` [CBK074922], 95.7%.
On to `O=S(=O)(c1ccc(Cl)c(S(=O)(=O)N2CCOCC2)c1)c1ccc(Cl)c(S(=O)(=O)N2CCOCC2)c1` [CBK261369], for which the viability at 28.5 h, 10 µM amounted to 112%.
Same read-out and setting: as for `Cc1ccc(O)c(CN[C@@H]2CCC[C@H]2Cc2cc(C)no2)c1` [CBK284936], the figure is 101%.
Same read-out and setting: with `CCC(C)(C)c1ccc(S(=O)(=O)Nc2ccc3ncsc3c2)cc1` [CBK043490] the figure was 113%.
